Measured values: US10874743B2, “IRAK degraders and uses thereof” (Kymera Therapeutics, Inc., priority 2017, dated 2020)

These compounds were tested against T1, IRAK4 (Homo sapiens, UniProt Q9NWZ3) (assay: PBMC degradation assay (western blot, % IRAK4 degraded after 4 hours)). Conditions: human PBMCs.
T1 sequence (Q9NWZ3 1-460): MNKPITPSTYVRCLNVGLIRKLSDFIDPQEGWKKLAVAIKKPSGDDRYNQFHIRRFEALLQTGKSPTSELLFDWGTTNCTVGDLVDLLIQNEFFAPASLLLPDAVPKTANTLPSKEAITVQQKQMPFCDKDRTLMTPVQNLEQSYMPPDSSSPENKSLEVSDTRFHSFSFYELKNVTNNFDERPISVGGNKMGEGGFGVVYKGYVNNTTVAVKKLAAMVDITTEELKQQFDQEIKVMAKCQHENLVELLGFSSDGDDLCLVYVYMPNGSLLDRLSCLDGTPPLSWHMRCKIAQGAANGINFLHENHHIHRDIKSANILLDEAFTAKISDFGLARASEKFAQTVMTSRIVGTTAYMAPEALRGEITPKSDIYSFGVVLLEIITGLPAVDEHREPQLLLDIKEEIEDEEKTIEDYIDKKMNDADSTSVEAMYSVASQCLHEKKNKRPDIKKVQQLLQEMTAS
Assay type: cell-based
Description: Protocol summary of PBMC degradation studies from compound treatment through quantitation.
PBMC culture medium: Human peripheral blood mononuclear cells (PBMCs): RPMI+10% FBS (Heat-inactivated)+1% P/S.
Cells were cultured at a minimum of 2.5×10^6 c/mL. • PBMCs were incubated @ 37° C./5% CO2 and allowed to rest overnight. • Following overnight recovery, a cell count/viability assessment by trypan blue exclusion was performed. Cells densities were adjusted back to 2.5×10^6 c/mL (proceed with plating only if viability >80%). • In a 6 well plate, 2.0 mL of cells were added to each well for a minimum of 5×10^6 CT per treatment condition. Compounds dilutions were prepared from 20 mM stock and were added at a final 1000× dilution (0.1% DMSO concentration). • At the end of treatment, cells were harvested and spun @ 1800 rpm for 5 min. 1×PBS wash and spun again @ 1800 rpm for 5 min. Cell pellets were frozen and stored at −80° C. until further processing. • Lysates were generated by resuspending in lysis buffer. Protein quantification was performed with a BCA kit. • 20 μg of protein were loaded per lane and run on a 26-well 4-12% Bis-Tris SDS-page gel. • Transfers were performed on PVDF membranes using the BioRad Mixed MW turbo program for 7 min. • Membranes were blocked for one hour on a rocker at room temperature. • Primary antibodies were incubated overnight at 4° C. on a rocker. • Membranes were washed 3×TBST, 5 min each. • Secondaries were added and incubated for one hour on a rocker at room temperature. • Membranes were washed 3×TBST, 5 min each and rinsed well with deionized H2O. Membranes were scanned using the Licor Odessey CLx and bands were quantified using Image Studio Lite Version 5.2 software.
PBMC results at 4 hours. The letter codes indicate the percentage of IRAK4 degraded after 4 hours: A (>50% degradation), B (>20-50% degradation) and C (<20% degradation)

SMILES | PBMC % IRAK4 Degradation
NC(=O)c1nn(C2CCN(C(=O)COCCOCCOCCNc3cccc4c3C(=O)N(C3CCC(=O)NC3=O)C4=O)CC2)cc1NC(=O)c1coc(-c2ccnc(NCC(F)(F)F)c2)n1 (stereo not shown) [I-152, N-[3-carbamoyl-1-[1-[2-[2-[2-[2-[[2-(2,6-dioxo-3-piperidyl)-1,3-dioxo-isoindolin-4-yl]amino]ethoxy]ethoxy]ethoxy]acetyl]-4-piperidyl]pyrazol-4-yl]-2-[2-(2,2,2-trifluoroethylamino)-4-pyridyl]oxazole-4-carboxamide] | C (<20% degradation)
NC(=O)c1nn(-c2ccc(C(=O)NCCOCCNC(=O)COc3cccc4c3C(=O)N(C3CCC(=O)NC3=O)C4=O)cc2)cc1NC(=O)c1coc(-c2ccnc(NCC(F)(F)F)c2)n1 (stereo not shown) [I-110] | A (>50% degradation)
NC(=O)c1nn(-c2ccc(C(=O)NCCCCCNC(=O)COc3cccc4c3C(=O)N(C3CCC(=O)NC3=O)C4=O)cc2)cc1NC(=O)c1coc(-c2ccnc(NCC(F)(F)F)c2)n1 (stereo not shown) [I-106, N-[3-carbamoyl-1-[4-[5-[[2-[2-(2,6-dioxo-3-piperidyl)-1,3-dioxo-isoindolin-4-yl]oxyacetyl]amino]pentylcarbamoyl]phenyl]pyrazol-4-yl]-2-[2-(2,2,2-trifluoroethylamino)-4-pyridyl]oxazole-4-carboxamide] | A (>50% degradation)
NC(=O)c1nn(-c2ccc(C(=O)NCCCNC(=O)COc3cccc4c3C(=O)N(C3CCC(=O)NC3=O)C4=O)cc2)cc1NC(=O)c1coc(-c2ccnc(NCC(F)(F)F)c2)n1 (stereo not shown) [I-112] | A (>50% degradation)
NC(=O)c1nn(C2CCN(C(=O)COCCOCCOCCOCCNc3cccc4c3C(=O)N(C3CCC(=O)NC3=O)C4=O)CC2)cc1NC(=O)c1coc(-c2ccnc(NCC(F)(F)F)c2)n1 (stereo not shown) [I-155] | C (<20% degradation)
NC(=O)c1nn(-c2ccc(C(=O)NCCCOCCCNc3cccc4c3C(=O)N(C3CCC(=O)NC3=O)C4=O)cc2)cc1NC(=O)c1coc(-c2ccnc(NCC(F)(F)F)c2)n1 (stereo not shown) [I-141] | A (>50% degradation)
O=C1CCC(N2C(=O)c3cccc(NCCOCCOCCNCc4ccc(-n5cc(NC(=O)c6coc(-c7ccnc(NCC8CC8)c7)n6)c(C(F)(F)F)n5)cc4)c3C2=O)C(=O)N1 (stereo not shown) [I-185, 3-2-(2-((Cyclopropylmethyl)amino)pyridin-4-yl)-N-(1-(4-(((2-(2-(2-((2-(2,6-dioxopiperidin-3-yl)-1,3-dioxoisoindolin-4-yl)amino)ethoxy)ethoxy)ethyl)amino)methyl)phenyl)-3-(trifluoromethyl)-1H-pyrazol-4-yl)oxazole-4-carboxamide] | A (>50% degradation)
NC(=O)c1nn(-c2ccc(C(=O)NCCOCCOCCOCCNC(=O)COc3cccc4c3C(=O)N(C3CCC(=O)NC3=O)C4=O)cc2)cc1NC(=O)c1coc(-c2ccnc(NCC(F)(F)F)c2)n1 (stereo not shown) [I-108] | C (<20% degradation)
NC(=O)c1nn(-c2ccc(C(=O)NCCOCCCCCOCCNC(=O)COc3cccc4c3C(=O)N(C3CCC(=O)NC3=O)C4=O)cc2)cc1NC(=O)c1coc(-c2ccnc(NCC(F)(F)F)c2)n1 (stereo not shown) [I-116, N-(3-carbamoyl-1-(4-((2-((5-(2-(2-((2-(2,6-dioxopiperidin-3-yl)-1,3-dioxoisoindolin-4-yl)oxy)acetamido)ethoxy)pentyl)oxy)ethyl)carbamoyl)phenyl)-1H-pyrazol-4-yl)-2-(2-((2,2,2-trifluoroethyl)amino)pyridin-4-yl)oxazole-4-carboxamide] | A (>50% degradation)
NC(=O)c1nn(C2CN(C(=O)COCCOCCNc3cccc4c3C(=O)N(C3CCC(=O)NC3=O)C4=O)C2)cc1NC(=O)c1coc(-c2ccnc(NCC(F)(F)F)c2)n1 (stereo not shown) [I-156] | C (<20% degradation)
NC(=O)c1nn(-c2ccc(C(=O)NCCCCCCCCCCCNC(=O)COc3cccc4c3C(=O)N(C3CCC(=O)NC3=O)C4=O)cc2)cc1NC(=O)c1coc(-c2ccnc(NCC(F)(F)F)c2)n1 (stereo not shown) [I-104] | C (<20% degradation)
O=C1CCC(N2C(=O)c3cccc(NCCNCCCCCNC(=O)c4ccc(-n5cc(NC(=O)c6coc(-c7ccnc(NCC8CC8)c7)n6)c(C(F)(F)F)n5)cc4)c3C2=O)C(=O)N1 (stereo not shown) [I-150] | A (>50% degradation)
NC(=O)c1nn(-c2ccc(C(=O)NCc3cn(CCCNc4cccc5c4C(=O)N(C4CCC(=O)NC4=O)C5=O)nn3)cc2)cc1NC(=O)c1coc(-c2ccnc(NCC(F)(F)F)c2)n1 (stereo not shown) [I-180, N-[3-carbamoyl-1-[4-[[1-[3-[[2-(2,6-dioxo-3-piperidyl)-1,3-dioxo-isoindolin-4-yl]amino]propyl]triazol-4-yl]methylcarbamoyl]phenyl]pyrazol-4-yl]-2-[2-(2,2,2-trifluoroethylamino)-4-pyridyl]oxazole-4-carboxamide] | A (>50% degradation)

Each compound was assayed against T1, IRAK4 (assay: THP-1 degradation assay (western blot, % IRAK4 degraded after 24 hours)). Conditions: THP-1 cells.
Assay type: cell-based
Parameters: endogenous in cells
Description: Compounds were reconstituted in DMSO to make stock solutions at concentration of 60 mM. THP-1 and OCI-LY10 cells were maintained in RPMI-1640 medium containing 10% FBS, 0.5 μM 2-ME or 20% FBS, 55 μM 2-ME, and 1% L-Glutamine respectively.
Cells were seeded into 6-well plates with 5e6 cells per well. 200 μL of diluted compounds were added to cells to the final concentration of 0.003-10 μM. After 4 or 24 hour-incubation at 37° C., cells were collected into 2 mL Eppendorf tubes and centrifuged at 1,000 rpm for 5 min. The cell pellets were washed with 1×DPBS once and resuspended in 60 μL lysis buffer. The cells were lysed on ice for 10 min, then centrifuged at 14,000 rpm for 10 min at 4° C. and the supernatants were collected for western blots. For THP-1 cells, the lysis buffer contained 40 mM pH 7.4 HEPES, 140 mM NaCl, 2.5 mM EDTA, 1% NP-40, 0.1% SDS, and protease inhibitor cocktail (Roche, Cat. No. 05892791001). For OCI-LY10 cells, RIPAbuffer (Thermo Fisher, 89900) with Halt Protease and Phosphatase Inhibitor Cocktail (Thermo Fisher, 78446) was applied.
The protein concentration of cell lysates was quantified with Pierce™ BCA Protein Assay Kit (Pierce, 23227). Albumin standards at different concentrations were prepared, involving 2,000 ug/mL, 1,500 ug/mL, 1,000 ug/mL, 750 ug/mL, 500 ug/mL, 250 ug/mL, 125 ug/mL, and 25 ug/mL. BCA working reagents were prepared by mixing BCA reagent A with reagent B in 50:1 ratio. 200 μL of the BCA working reagents were added to 25 μL of BCA standard or cell lysates in microplate, and mixed thoroughly on a plate shaker for 30 seconds. After incubation at 37° C. for 30 min, the absorbance of samples at 562 nm were measured with EnVision Plate Reader.
Protein lysates were prepared in NuPAGE™ LDS sample buffer and NuPAGE™ sample reducing agent, and incubated at 95° C. for 5 min. For western blots, 20-25 μg of total proteins were resolved in 4-12% Bis-Tris gels (Introgen, WG1403A) or 10% Bis-Tris Midi gels (Invitrogen, WG1202BOX) running with 1×MOPS SDS running buffer (Invitrogen, NP0001) or 1×MES SDS running buffer (Invitrogen, NP0002). The proteins were transferred to low fluorescence PVDF membranes using the Trans-Blot Turbo Transfer System. Membranes were then blocked in Odyssey blocking buffer at RT for 1 h followed by primary incubation at 4° C. overnight. The primary antibodies were IRAK1 rabbit monoclonal antibody (CST, #4504S, 1:500), IRAK3 rabbit polyclonal antibody (CST, #4369, 1:500), IRAK4 rabbit polyclonal antibody (CST, #4363S, 1:1,000), MyD88 rabbit monoclonal antibody (Abcam, Ab133739, 1:2,000), j3-actin mouse monoclonal antibody (Sigma, A5441, 10,000), and Gapdh mouse monoclonal antibody (Millipore, MAB374, 1:5,000). Membranes were washed three times with 1×TBST, and then incubated with IR Dye 800 CW Goat anti-rabbit (Licor, #926-32211) and IR Dye 700 CW Goat anti-mouse (Licor, #926-68070) secondary antibodies in 1:10,000 dilution at RT for 1 h. The western blot images were obtained using Odyssey Imaging System.
THP-1 results at 24 hours. The letter codes indicate the percentage of IRAK4 degraded after 24 hours: A (>50% degradation), B (>20-50% degradation) and C (<20% degradation)

SMILES | THP-1 24 h % IRAK4 Degradation
Cc1ncsc1-c1ccc(CNC(=O)[C@@H]2C[C@@H](O)CN2C(=O)C(NC(=O)COCCOCCOCCOCCNC(=O)[C@H]2CC[C@H](NC(=O)c3cnc(Nc4ccc5cnccc5n4)cc3NC3CC3)CC2)C(C)(C)C)cc1 (stereo partly shown) [I-13] | C (<20% degradation)
Cc1ncsc1-c1ccc(CNC(=O)[C@@H]2C[C@@H](O)CN2C(=O)[C@@H](NC(=O)COCCOCCOCCOCCOCCOCC(F)CNC(=O)c2cnc(Nc3ccc4cnccc4n3)cc2NC2CC2)C(C)(C)C)cc1 (stereo partly shown) [I-119] | B (>20-50% degradation)
O=C(COc1cccc2c1C(=O)N(C1CCC(=O)NC1=O)C2=O)NCCOCCOCCOCC(F)CNC(=O)c1cnc(Nc2ccc3cnccc3n2)cc1NC1CC1 (stereo not shown) [I-96] | C (<20% degradation)
